What follows are compounds tested against Glycogen synthase kinase-3 beta (Homo sapiens, UniProt P49841) (assay: Kinase-Glo Luminescent Kinase Assay). Conditions: pH 7.4.
Procedure: Briefly, recombinant human GSK3β (1 µM, 10 µL) was mixed with 10 µL of GSK3β substrate ([…]pSEDEEE, 100 µM), 19 µL of 2.5 × kinase buffer (50 mM Tris-HCl, pH 7.4, 25 mM MgCl2), 10 µL of 10 µM ATP, 1 µL of the indicated amount of chemicals in DMSO to a final volume of 50 µL. Control reaction without kinase was set up. The mixtures were incubated at 30 °C for 40 min. The enzymatic reaction was stopped with 50 µL of Kinase-Glo reagent. Glow-type luminescence was recorded after 10 min.

Chain of Glycogen synthase kinase-3 beta (P49841 whole entry): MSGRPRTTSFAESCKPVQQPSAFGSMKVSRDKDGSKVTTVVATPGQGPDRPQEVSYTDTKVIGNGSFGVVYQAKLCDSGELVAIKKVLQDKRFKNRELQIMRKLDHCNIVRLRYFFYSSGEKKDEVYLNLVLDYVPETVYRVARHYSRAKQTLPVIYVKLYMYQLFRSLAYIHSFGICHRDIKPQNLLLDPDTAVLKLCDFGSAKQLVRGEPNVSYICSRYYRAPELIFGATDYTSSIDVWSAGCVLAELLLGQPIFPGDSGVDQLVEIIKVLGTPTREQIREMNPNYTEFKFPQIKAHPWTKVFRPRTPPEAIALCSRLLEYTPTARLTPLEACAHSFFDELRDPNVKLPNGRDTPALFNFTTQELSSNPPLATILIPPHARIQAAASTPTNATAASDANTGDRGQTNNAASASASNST

In order of falling IC50:
1. COc1cc2c(CNC3CCN(S(=O)(=O)c4ccc(C)cc4)CC3)cc3c(c2cc1OC)C(=O)NC3=O [7,8-dimethoxy-5-({[1-(4-methylbenzenesulfonyl)piperidin-4-yl]amino}methyl)-1H,2H,3H-benzo[e]isoindole-1,3-dione (8a)]  3730 nM
2. COc1ccc(S(=O)(=O)N2CCC(NCc3cc4c(c5cc(OC)c(OC)cc35)C(=O)NC4=O)CC2)cc1 [7,8-dimethoxy-5-((1-(4-methoxyphenylsulfonyl)piperidin-4-ylamino)methyl)-1H-benzo[e]isoindole-1,3(2H)-dione (8b)]  2610 nM
3. COc1cc2c(CNC3CCN(S(=O)(=O)c4cccc5cccnc45)CC3)cc3c(c2cc1OC)C(=O)NC3=O [7,8-dimethoxy-5-((1-(quinolin-8-ylsulfonyl)piperidin-4-ylamino)methyl)-1H-benzo[e]isoindole-1,3(2H)-dione (8h)]  1530 nM
4. COc1cc2c(CNC3CCN(S(=O)(=O)c4ccccc4)CC3)cc3c(c2cc1OC)C(=O)NC3=O [7,8-dimethoxy-5-((1-(phenylsulfonyl)piperidin-4-ylamino)methyl)-1H-benzo[e]isoindole-1,3(2H)-dione (8g)]  1030 nM
5. COc1cc2c(C)cc3c(c2cc1OC)C(=O)NC3=O [7,8-Dimethoxy-5-methyl-1H-benzo[e]isoindole-1,3(2H)-dione]  1010 nM
6. COc1cc2c(CNC3CCN(S(=O)(=O)c4cccs4)CC3)cc3c(c2cc1OC)C(=O)NC3=O [7,8-dimethoxy-5-((1-(thiophen-2-ylsulfonyl)piperidin-4-ylamino)methyl)-1H-benzo[e]isoindole-1,3(2H)-dione (8i)]  540 nM
7. COc1cc2c(CNC3CCN(S(=O)(=O)c4ccc(C(F)(F)F)cc4)CC3)cc3c(c2cc1OC)C(=O)NC3=O [7,8-dimethoxy-5-((1-(4-(trifluoromethyl)phenylsulfonyl)piperidin-4-ylamino)methyl)-1Hbenzo[e]isoindole-1,3 (2H)-dione (8e)]  530 nM
8. COc1cc2c(CNC3CCN(S(=O)(=O)c4ccccc4[N+](=O)[O-])CC3)cc3c(c2cc1OC)C(=O)NC3=O [7,8-dimethoxy-5-((1-(2-nitrophenylsulfonyl)piperidin-4-ylamino)methyl)-1H-benzo[e]isoindole-1,3(2H)-dione (8f)]  530 nM
9. COc1cc2c(CNC3CCN(S(C)(=O)=O)CC3)cc3c(c2cc1OC)C(=O)NC3=O [7,8-dimethoxy-5-((1-(methylsulfonyl)piperidin-4-ylamino)methyl)-1H-benzo[e]isoindole-1,3(2H)-dione (8d)]  360 nM
10. COc1cc2c(CNC3CCN(S(=O)(=O)c4ccc([N+](=O)[O-])cc4)CC3)cc3c(c2cc1OC)C(=O)NC3=O [7,8-dimethoxy-5-((1-(4-nitrophenylsulfonyl)piperidin-4-ylamino)methyl)-1H-benzo[e]isoindole-1,3(2H)-dione (8c)]  310 nM

— BindingDB's records for doi:10.1016/j.bioorg.2015.05.009 (Peking University, 2015)
